Several values for one entry are separate records, joined by “and”; a condition that tells them apart may be missing. Identical values can stand only once. Like-named read-outs stand apart in the source and are kept apart here. Values belong to the compound of their own block, whether it stands above or below them.
Key:
[1] = target: T1, Aβ(1–42) aggregates (Homo sapiens, UniProt P05067); experiment: In vitro binding assay using Aβ(1–42) aggregates (intrinsic fluorescence of the ligands); settings: Aβ(1–42) aggregates 1 μM, PBS, 37 °C, 1 h, ligand fluorescence
T1 construct: β-Amyloid(1–42) peptide was purchased from Bachem; purchased Bachem (Torrance, CA, USA)
Experimental: Binding constants of the ligands for Aβ(1–42) aggregates were determined using the intrinsic fluorescence of the ligands. The binding constant of CRANAD-2 was also measured for comparison. […] Considering the Kd values and feasibility of ^18F-labeling of all the ligands, ligand 2 was selected for further in vitro and in vivo studies.
Aβ(1–42) aggregates were prepared as described in the literature. Briefly, Aβ(1–42) peptide (200 μM) was dissolved in PBS and stirred gently at 37 °C for 2 d. The Aβ(1–42) aggregate formation was confirmed by thioflavin-T fluorescence assay. In vitro binding assays were carried out using the methods described in the literature with some modifications. Various concentrations of ligands (10–400 nM) were dissolved in DMSO, which were then added to PBS solutions of Aβ(1–42) aggregates (1 μM) charged in 96-well black clear-bottom plates. The final concentration of DMSO in a total volume of solution was 1%. Non-specific binding was determined in the absence of Aβ(1–42) aggregates. The reaction mixtures were incubated at 37 °C for 1 h, after which the fluorescence spectra of the ligands were obtained (excitation 510–560 nm and emission 590–660 nm) using a monochromator multimode microplate reader. All experiments were performed in triplicate. Kd values were determined using GraphPad Prism software 5.

[2] = target: Aβ(1–40) aggregates; parameters: method as in PMID 19807070; settings: cited from earlier work
[3] = parameters: method as in PMID 19807070; settings: cited from earlier work
[4] = parameters: method as in PMID 19807070; settings: cited from earlier work; remark: listed apart in the source
[5] = Excitation and emission spectra; format: physicochemical; settings: methanol, 2.5 μM
Experimental: Despite this, ligand 2 has sufficient red-shifted emission for optical imaging.
Ligand 2 was dissolved in methanol (2.5 μM), and its excitation and emission spectra were obtained using a Mithras[2] LB 943 monochromator multimode microplate reader (Berthold Technologies, Bad Wildbad, Germany).

[6] = target: Aβ plaques (Homo sapiens, UniProt P05067); experiment: Fluorescent staining of Aβ plaques in mouse brain sections; parameters: species or system double transgenic mouse (Tg APP/PS-1)
Experimental: Fluorescent staining of Aβ plaques by 2 was performed using the brain sections from a double transgenic mouse (Tg APP/PS-1). Localization of the Aβ plaques was confirmed by immunofluorescent staining the adjacent brain sections from the transgenic mouse with an anti-Aβ antibody (Fig. 6). The Aβ plaques in the cerebral cortex and hippocampus regions of the transgenic mouse brain sections were stained with 2 (Fig. 6a–c). The staining pattern was consistent with that observed with an Aβ-specific antibody (Fig. 6d–f).
Figure 6 A double transgenic mouse brain section (a–c) and an age-matched wild-type mouse brain section (g–i) stained with 2. The adjacent double transgenic mouse brain section (d–f) and age-matched wild-type mouse brain section (j–l) stained with an Aβ-specific antibody. Magnification of the regions in white boxes (c,f,i and l). Scale bars: 100 μm (c,f,i and l) and 200 μm (the rest).
A double transgenic mouse (APP/PS1, male, 18 months old) was transcardially perfused with PBS, followed by 10% neutral buffered formalin (NBF) under anesthesia. The brain was then immediately removed from skull and post-fixed in 10% NBF for 24 h. The hippocampus and cerebral cortex regions were sliced using brain matrix, embedded in paraffin, and sectioned serially into 4 μm thickness. Brain sections from an age-matched wild-type mouse (male) were obtained as described above. […]

[7] = Metabolism study of 2 (TLC with fluorescence detection of brain homogenates); format: in vivo, Balb/C nude mice
Experimental: In order to further investigate the metabolites of [^18F]2, metabolism study of 2 was also performed; the brain homogenates were analyzed by TLC, followed by fluorescence detection.
After ex vivo optical imaging, the brain tissues were homogenized in 1 mL of acetonitrile and centrifuged. The supernatants were analyzed by TLC using a 4:1 mixture of ethyl acetate–hexane as the developing solvents, and the TLC plates were subjected to optical imaging for 1 sec (excitation, 570 nm; emission, 660 nm).

[8] = Partition coefficient measurement (1-octanol/water); format: physicochemical; settings: 1-octanol and water
Experimental: Difluoroboron complex formation lowered the lipophilicity of the curcumin derivative based on TLC analysis.
Partition coefficient of [^18F]2 was measured according to the method described in the literature. [^18F]2 was dissolved in 1-octanol (1 mL) and diluted with water (1 mL). The solution was vortexed vigorously for 5 min and then centrifuged. The 1-octanol and aqueous layers were separated out, and a 500-μL aliquot of each layer was removed and measured using a gamma counter. Samples from the 1-octanol and aqueous layers were repartitioned until consistent values were obtained. The log P is expressed as the logarithm of the ratio of the counts per minute of 1-octanol versus that of water.

[9] = In vitro stability in PBS and FBS (radio-TLC); format: in vitro ADME; settings: for remaining at 2 h: 37 °C, 120 min, radio-TLC, read-out: % remaining radioligand
Experimental: Stability study was performed by incubating [^18F]2 in phosphate-buffered saline (PBS) and in fetal bovine serum (FBS) at 37 °C for 120 min.
Data are presented as % remaining radioligand.
[^18F]2 (21.5 MBq) was dissolved in a minimal volume of 10% ethanol–saline and incubated with PBS or 50% FBS (Gibco, Brooklyn, NY, USA) at 37 °C for 120 min. Aliquots were taken from the incubation solution after 0, 2, 30, 60, and 120 min. The aliquots were analyzed using a radio-TLC scanner.

[10] = Metabolism study of [^18F]2 (radio-TLC of brain homogenates and blood); format: in vivo, ICR mice; settings: brain homogenate, 2 min after injection
Experimental: However, the radioligand disappeared almost entirely, and the new polar radioactive peaks appeared at the origin of radio-TLC at 30 and 60 min after injection (82% and 100%, respectively; Fig. 9c,d). The radioligand also disappeared in the blood samples, but at a rate slower than that of the brain samples (Fig. 9f–h). The polar radioactive products were further analyzed by radio-TLC using a polar developing solvent system, and the polar products moved toward the solvent front. […] Moreover, the polar products were not adsorbed onto calcium phosphate (7% in calcium phosphate pellet vs. 93% in supernatant), which is a component of the bone matrix.
Figure 9 Radio-TLC analysis of the brain homogenates and blood samples obtained at 2, 30, and 60 min after injection of [^18F]2 into ICR mice. […] The 60-min samples (d and h) were further analyzed by radio-TLC using a 1:1:0.01 mixture of dichloromethane–methanol–triethylamine as the developing solvents (e and i). TLC analysis followed by fluorescence detection of the brain homogenates obtained at 2, 30, and 60 min after injection of 2 into Balb/C nude mice (j). […]
[^18F]2 (19.6 MBq) dissolved in 10% ethanol–saline was injected into ICR mice via a tail vein. […] The supernatants were analyzed by radio-TLC using a 4:1 mixture of ethyl acetate–hexane or a 1:1:0.01 mixture of dichloromethane–methanol–triethylamine as the developing solvents.

[11] = Biodistribution study; format: in vivo; settings: ICR mice, i.v.
Experimental: However, there was poor brain uptake at 2 min after injection with increased uptake over time, as follows: 0.49 ± 0.02% ID/g at 2 min, 1.02 ± 0.08% ID/g at 30 min, and 1.19 ± 0.06% ID/g at 60 min (Table 1).
ICR mice (male, 7-week-old, four mice per time point) were injected with [^18F]2 (1.85 MBq) dissolved in 10% ethanol–saline via a tail vein. Mice were sacrificed at the indicated time points (2, 30, and 60 min). Samples of blood and major tissues (heart, lung, liver, spleen, kidney, intestines, muscle, femur, and brain) were removed, weighed, and counted in a Wizard[2] automatic gamma counter (PerkinElmer, Waltham, MA, USA). Data are expressed as the percent injected dose per gram of tissue (% ID/g).

[12] = tested on: HIV-1 protease; parameters: method as in PMID 8087563; settings: cited from earlier work

T1 sequence (P05067 672-713): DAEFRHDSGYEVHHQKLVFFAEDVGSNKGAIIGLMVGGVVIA
Chain of Aβ plaques (P05067 672-711 limits assumed): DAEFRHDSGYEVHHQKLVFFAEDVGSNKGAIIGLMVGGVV

Structure (SMILES): CNc1ccc(/C=C/C2=[O+][B-](F)(F)OC(/C=C/c3ccc(OCCOCCF)cc3)=C2)cc1 [Ligand 1, BF2 complex of 4′-monomethylamino-4″-(2-(2-fluoroethoxy)ethoxy)curcuminoid]
- Kd [1]: 33.8 nM

Structure (SMILES): CN(C)c1ccc(/C=C/C2=[O+][B-](F)(F)OC(/C=C/c3ccc(OCCOCCF)cc3)=C2)cc1 [Ligand 2, BF2 complex of 4′-dimethylamino-4″-(2-(2-fluoroethoxy)ethoxy)curcuminoid]
- Kd [1]: 19.7 nM
- emission [5]: 650 nm
- excitation [5]: 550 nm
- staining of Aβ plaques ([6]; Tg APP/PS-1 mouse brain sections, cerebral cortex and hippocampus, 100 μM, 10 min): stained
- staining of brain sections ([6]; age-matched wild-type mouse brain sections): no notable positive staining
- fluorescent spot of 2 on TLC of brain homogenate ([7]; 2-min sample): a fluorescent spot was detected
- fluorescent spot of 2 on TLC of brain homogenate ([7]; 30- and 60-min samples): did not appear

Structure (SMILES): COc1cc(/C=C/C2=[O+][B-](F)(F)OC(/C=C/c3ccc(OCCOCCF)c(OC)c3)=C2)ccc1O [Ligand 3, BF2 complex of 4′-(2-(2-fluoroethoxy)ethoxy)curcuminoid]
- Kd [1]: 138 nM

Structure (SMILES): CN(C)c1ccc(/C=C/C2=[O+][B-](F)(F)OC(/C=C/c3ccc(OCCOCC[18F])cc3)=C2)cc1 [[^18F]2]
- logP [8]: 2.58 ± 0.04
- remaining at 120 min ([9]; bovine, PBS and fetal bovine serum (50%), both PBS and FBS, read-out: % remaining radioligand (stable in both PBS and FBS)): > 83%
- remaining at 2 h ([9]; bovine, fetal bovine serum (50%), FBS (50% FBS in method)): 83%
- remaining at 2 h ([9]; phosphate-buffered saline, PBS): 89%
- [^18F]2 remaining in the brain [10]: 84%
- Biodistribution, Blood ([11]; 2 min): 1.49 ± 0.12 % ID/g
- Biodistribution, Brain ([11]; 2 min): 0.49 ± 0.02 % ID/g
- Biodistribution, Femur ([11]; 2 min): 0.58 ± 0.10 % ID/g
- Biodistribution, Heart ([11]; 2 min): 2.20 ± 0.57 % ID/g
- Biodistribution, Kidney ([11]; 2 min): 3.25 ± 0.48 % ID/g
- Biodistribution, Large intestine ([11]; 2 min): 0.24 ± 0.05 % ID/g
- Biodistribution, Liver ([11]; 2 min): 26.92 ± 1.58 % ID/g
- Biodistribution, Lung ([11]; 2 min): 3.56 ± 0.25 % ID/g
- Biodistribution, Muscle ([11]; 2 min): 0.49 ± 0.19 % ID/g
- Biodistribution, Small intestine ([11]; 2 min): 0.92 ± 0.13 % ID/g
- Biodistribution, Spleen ([11]; 2 min): 12.59 ± 2.42 % ID/g
- Biodistribution, Blood ([11]; 30 min): 2.50 ± 0.22 % ID/g
- Biodistribution, Brain ([11]; 30 min): 1.02 ± 0.08 % ID/g
- Biodistribution, Femur ([11]; 30 min): 0.91 ± 0.13 % ID/g
- Biodistribution, Heart ([11]; 30 min): 1.93 ± 0.19 % ID/g
- Biodistribution, Kidney ([11]; 30 min): 4.11 ± 0.46 % ID/g
- Biodistribution, Large intestine ([11]; 30 min): 0.95 ± 0.11 % ID/g
- Biodistribution, Liver ([11]; 30 min): 14.21 ± 1.39 % ID/g
- Biodistribution, Lung ([11]; 30 min): 2.62 ± 0.29 % ID/g
- Biodistribution, Muscle ([11]; 30 min): 0.97 ± 0.11 % ID/g
- Biodistribution, Small intestine ([11]; 30 min): 6.47 ± 1.63 % ID/g
- Biodistribution, Spleen ([11]; 30 min): 11.66 ± 2.70 % ID/g
- Biodistribution, Blood ([11]; 60 min): 3.46 ± 0.81 % ID/g
- Biodistribution, Brain ([11]; 60 min): 1.19 ± 0.06 % ID/g
- Biodistribution, Femur ([11]; 60 min): 1.43 ± 0.14 % ID/g
- Biodistribution, Heart ([11]; 60 min): 1.87 ± 0.20 % ID/g
- Biodistribution, Kidney ([11]; 60 min): 2.58 ± 0.15 % ID/g
- Biodistribution, Large intestine ([11]; 60 min): 2.16 ± 0.42 % ID/g
- Biodistribution, Liver ([11]; 60 min): 9.36 ± 0.18 % ID/g
- Biodistribution, Lung ([11]; 60 min): 2.34 ± 0.50 % ID/g
- Biodistribution, Muscle ([11]; 60 min): 0.87 ± 0.05 % ID/g
- Biodistribution, Small intestine ([11]; 60 min): 14.92 ± 4.06 % ID/g
- Biodistribution, Spleen ([11]; 60 min): 10.72 ± 2.45 % ID/g

Structure (SMILES): COc1cc(/C=C/C2=CC(/C=C/c3ccc(O)c(OC)c3)=[O+][B-](F)(F)O2)ccc1O [difluoroboron-curcumin]
- IC50 [12]: 24000 nM

Further compounds by falling Kd [1], results first:

- Kd [1]: 19.4 nM
Structure (SMILES): CN(C)c1ccc(/C=C/C2=CC(/C=C/c3ccc(N(C)C)cc3)=[O+][B-](F)(F)O2)cc1 [CRANAD-2]
- Kd [2]: 38.7 nM and 38 nM
- stability in serum [3]: stability in the serum
- blue shift when binding to the Aβ aggregates [4]: 90 nm
- emission ([4]; in methanol): 760 nm

- Kd [1]: 15.3 nM
Structure (SMILES): CN(C)c1ccc(/C=C/C2=[O+][B-](F)(F)OC(/C=C/c3ccc(OCC(O)CF)cc3)=C2)cc1 (stereo not drawn) [Ligand 4, BF2 complex of 4′-dimethylamino-4″-(3-fluoro-2-hydroxypropoxy)curcuminoid]
